In ChEMBL document CHEMBL4393726, “Distinct biological responses of metastatic castration resistant prostate cancer cells upon exposure to G-quadruplex interacting naphthalenediimide derivatives” (Eur J Med Chem, 2019):
Activity calls are given as the source filed them. The calls are words filed in the database; no cut-off is given here.

Tests used:
PC-3 [1] = assay: Effect on human PC3 cell growth assessed as no change in population doubling at 48 hr IC50 incubated for 48 hrs by cell counter based trypan blue exclusion assay; assay type: functional
PC-3 [2] = assay: Down regulation of EGFR protein expression in human PC3 cells at 48 hrs IC50 incubated for 48 hrs by Western immunoblot assay relative to control; assay type: functional
[3] = molecular target: T1, Mitogen-activated protein kinase; ERK1/ERK2 (Homo sapiens) (UniProt P27361+P28482); assay: Effect on ERK 1/2 phosphorylation at T202/Y204 residues in human PC3 cells assessed as decrease in ERK1/2 phosphorylation at T202/Y204 at 48 hrs IC50 incubated for 48 hrs by Western immunoblot assay; assay type: cell-based
Quadruplex DNA [4] = assay: Binding affinity to synthetic 5'Dabcyl/3'-FAM-labeled EGFR 272 G4 quadruplex DNA folded DNA assessed as entropy change by isothermal titration calorimetry; assay type: nucleic-acid assay
DU-145 [5] = assay: Effect on human DU145 cell growth assessed as change in cell growth at 72 hrs 0.5 times IC50 treated for every week for 56 days by cell counter based trypan blue exclusion assay; assay type: functional
PC-3 [6] = assay: Effect on ERK 1/2 basel level in human PC3 cells assessed as downregulation of ERK 1/2 basal level at 48 hrs IC50 incubated for 96 hrs by Western immunoblot assay; assay type: ADME, cell-based; conditions: pc-3, 96 h
PC-3 [7] = assay: Down regulation of EGFR protein expression in human PC3 cells at 48 hrs IC50 incubated for 96 hrs by Western immunoblot assay relative to control; assay type: functional
DU-145 [8] = assay: Effect of EGFR protein expression in human DU145 cell at 48 hrs IC50 treated for every week for 56 days by Western immunoblotting analysis; assay type: functional, cell-based
DU-145 [9] = assay: Induction of apoptosis in human DU145 cells assessed as increase in cleaved PARP1 level after 48 to 96 hrs by Western blot analysis; assay type: functional, cell-based
Quadruplex DNA [10] = assay: Binding affinity to synthetic 5'Dabcyl/3'-FAM-labeled EGFR 272 G4 quadruplex DNA folded DNA assessed as enthalpy change by isothermal titration calorimetry; assay type: nucleic-acid assay
DU-145 [11] = assay: Cytotoxicity against human DU145 cells assessed as decrease in cell viability after 48 hrs by MTS assay; assay type: functional, cell-based; conditions: DU-145, 48 h
PC-3 [12] = assay: Down regulation of EGFR protein expression in human PC3 cells after 24 hrs by Western immunoblot assay; assay type: functional, cell-based
PC-3 [13] = assay: Effect on AKT basal level in homozygous PTEN-deficient human PC3 cells assessed as reduction in AKT basal level at 48 hr IC50 incubated for 48 to 96 hrs by Western immunoblot assay; assay type: ADME, cell-based
[14] = molecular target: T1, Mitogen-activated protein kinase; ERK1/ERK2 (Homo sapiens); assay: Effect on ERK 1/2 phosphorylation at T202/Y204 residues in human DU145 cells assessed as increase in ERK1/2 phosphorylation at T202/Y204 at 48 hrs IC50 incubated for 48 to 96 hrs by Western immunoblot assay; assay type: cell-based
[15] = molecular target: RAC-alpha serine/threonine-protein kinase (Homo sapiens) (UniProt P31749); assay: Effect on AKT phosphorylation at S473 homozygous PTEN-deficient human PC3 cells as reduction in AKT phosphorylation at S473 residue at 48 hr IC50 incubated for 48 to 96 hrs by Western immunoblot assay
DU-145 [16] = assay: Effect on AKT basal level in heterozygous PTEN-positive human DU145 cells assessed as reduction in AKT basal level at 48 hrs IC50 incubated for 48 hrs by Western immunoblot assay; assay type: ADME, cell-based; conditions: du-145, 48 h
Quadruplex DNA [17] = assay: Stabilization of synthetic 5'Dabcyl/3'-FAM-labeled EGFR 272 G4 quadruplex DNA assessed as change in melting temperature by fluorescence melting assay; assay type: nucleic-acid assay
DU-145 [18] = assay: Effect on human DU145 cell growth assessed as population doubling at 48 hr IC50 incubated for 96 hrs by cell counter based trypan blue exclusion assay (reference value: 2.89); assay type: functional
PC-3 [19] = assay: Induction of apoptosis in human PC3 cells assessed as increase in cleaved PARP1 level after 48 to 96 hrs by Western blot analysis; assay type: functional, cell-based
PC-3 [20] = assay: Effect on ephithelial-mesenchymal transition in human PC3 cell assessed as increase in vimentin at 48 hrs 0.5 times IC50 treated for every week for 56 days by Western immunoblotting analysis; assay type: functional, cell-based
DU-145 [21] = assay: Cytotoxicity against human DU145 cells assessed as decrease in cell viability after 24 hrs by MTS assay; assay type: functional, cell-based; conditions: DU-145, 24 h
Quadruplex DNA [22] = assay: Binding affinity to synthetic 5'Dabcyl/3'-FAM-labeled telomeric 22 G4 quadruplex DNA folded DNA assessed as entropy change by isothermal titration calorimetry; assay type: nucleic-acid assay
PC-3 [23] = assay: Effect on ephithelial-mesenchymal transition in human PC3 cell assessed as decrease in E-cadherin expression at 48 hrs 0.5 times IC50 treated for every week for 56 days by Western immunoblotting analysis; assay type: functional, cell-based
PC-3 [24] = assay: Cytotoxicity against human PC3 cells assessed as decrease in cell viability after 24 hrs by MTS assay; assay type: functional, cell-based; conditions: PC-3, 24 h
Quadruplex DNA [25] = assay: Binding affinity to synthetic 5'Dabcyl/3'-FAM-labeled telomeric 22 G4 quadruplex DNA folded DNA assessed as enthalpy change by isothermal titration calorimetry; assay type: nucleic-acid assay
PC-3 [26] = assay: Effect on telomeric C-circle DNA in human PC3 cell assessed as alternative telomere maintenance based increase in telomeric C-circle DNA level at 48 hrs 0.5 times IC50 treated for every week for 56 days [32P]-labeled (CCCTAA)3 probe incubated for 56 days followed by post incubation of 8 hrs in presence of Bacillus phage phi29 DNA polymerase and further heat inactivation at 65 degreeC for 20 mins by dot blot based CC assay; assay type: functional
DU-145 [27] = assay: Effect on ERK 1 basal level in human DU145 cells assessed as reduction in ERK 1 basal level at 48 hrs IC50 incubated for 48 hrs by Western immunoblot assay; assay type: ADME, cell-based; conditions: du-145, 48 h
[28] = molecular target: T1, Mitogen-activated protein kinase; ERK1/ERK2 (Homo sapiens); assay: Effect on ERK 1/2 phosphorylation at T202/Y204 residues in human PC3 cells assessed as decrease in ERK1/2 phosphorylation at T202/Y204 at 48 hrs IC50 incubated for 96 hrs by Western immunoblot assay; assay type: cell-based
Quadruplex DNA [29] = assay: Stabilization of synthetic 5'Dabcyl/3'-FAM-labeled telomeric 22 G4 quadruplex DNA assessed as change in melting temperature by fluorescence melting assay; assay type: nucleic-acid assay
DU-145 [30] = assay: Cytotoxicity against human DU145 cells assessed as decrease in cell viability after 72 hrs by MTS assay; assay type: functional, cell-based; conditions: DU-145, 72 h
Homo sapiens [31] = organism: Homo sapiens; assay: Effect on telomere DNA in human PC3 cell assessed as increase in telomere DNA length at 48 hrs 0.5 times IC50 treated for every week for 56 days by pulsed field electrophoresis/southern blot based densitometric analysis
Homo sapiens [32] = organism: Homo sapiens; assay: Effect on telomere DNA in human DU145 cells assessed as telomere DNA length at 48 hrs 0.5 times IC50 treated for every week for 56 days by pulsed field electrophoresis/southern blot based densitometric analysis (reference value: 3.9 +/- 0.5 kb); assay type: cell-based
DU-145 [33] = assay: Down regulation of EGFR protein expression in human DU145 cells at 48 hrs IC50 incubated for 96 hrs by Western immunoblot assay relative to control; assay type: functional
[34] = molecular target: RAC-alpha serine/threonine-protein kinase (Homo sapiens) (UniProt P31749); assay: Effect on AKT phosphorylation at S473 in heterozygous PTEN-positive human DU145 cells as reduction in AKT phosphorylation at S473 residue at 48 hr IC50 incubated for 48 hrs by Western immunoblot assay
PC-3 [35] = assay: Effect on ERK 1/2 basal level in human PC3 cells assessed as downregulation of ERK 1/2 basal level at 48 hrs IC50 incubated for 48 hrs by Western immunoblot assay; assay type: ADME, cell-based; conditions: pc-3, 48 h
Quadruplex DNA [36] = assay: Stabilization of synthetic 5'Dabcyl/3'-FAM-labeled EGFR 272 G4 quadruplex DNA assessed as change in melting temperature at 1 uM by Fluorescence melting assay; assay type: nucleic-acid assay
PC-3 [37] = assay: Effect of EGFR protein expression in human PC3 cell assessed as reduction in EGFR level at 48 hrs IC50 treated for every week for 56 days by Western immunoblotting analysis; assay type: functional
Homo sapiens [38] = organism: Homo sapiens; assay: Effect on telomere DNA in human PC3 cells assessed as telomere DNA length at 48 hrs 0.5 times IC50 treated for every week for 56 days by pulsed field electrophoresis/southern blot based densitometric analysis (reference value: 4.6 +/- 0.3 kb); assay type: cell-based
DU-145 [39] = assay: Effect on ERK 2 basal level in human DU145 cells assessed as reduction in ERK 2 basal level at 48 hrs IC50 incubated for 48 hrs by Western immunoblot assay; assay type: ADME, cell-based; conditions: du-145, 48 h
PC-3 [40] = assay: Cytotoxicity against human PC3 cells assessed as decrease in cell viability after 72 hrs by MTS assay; assay type: functional, cell-based; conditions: PC-3, 72 h
DU-145 [41] = assay: Down regulation of EGFR protein expression in human DU145 cells after 24 hrs by Western immunoblot assay; assay type: functional, cell-based
PC-3 [42] = assay: Cytotoxicity against human PC3 cells assessed as decrease in cell viability after 48 hrs by MTS assay; assay type: functional, cell-based; conditions: PC-3, 48 h
PC-3 [43] = assay: Effect on human PC3 cell growth assessed as population doubling at 48 hr IC50 incubated for 96 hrs by cell counter based trypan blue exclusion assay (reference value: 2.6); assay type: functional
PC-3 [44] = assay: Effect on human PC3 cell growth assessed as reduction in cell growth at 72 hrs 0.5 times IC50 treated for every week for 56 days by cell counter based trypan blue exclusion assay; assay type: functional

T1 sequence (P27361 whole entry, looked up): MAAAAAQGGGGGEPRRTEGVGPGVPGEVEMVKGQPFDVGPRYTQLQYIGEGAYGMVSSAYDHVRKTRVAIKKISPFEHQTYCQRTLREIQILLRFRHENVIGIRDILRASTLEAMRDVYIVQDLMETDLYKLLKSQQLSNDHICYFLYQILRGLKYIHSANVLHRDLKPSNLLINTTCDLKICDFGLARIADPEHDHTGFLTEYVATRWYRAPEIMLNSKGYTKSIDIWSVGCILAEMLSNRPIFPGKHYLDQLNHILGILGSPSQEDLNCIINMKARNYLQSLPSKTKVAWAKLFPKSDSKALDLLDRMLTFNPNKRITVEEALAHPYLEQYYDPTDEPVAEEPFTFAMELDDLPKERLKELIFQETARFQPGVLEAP
T1 sequence (P28482 whole entry, looked up): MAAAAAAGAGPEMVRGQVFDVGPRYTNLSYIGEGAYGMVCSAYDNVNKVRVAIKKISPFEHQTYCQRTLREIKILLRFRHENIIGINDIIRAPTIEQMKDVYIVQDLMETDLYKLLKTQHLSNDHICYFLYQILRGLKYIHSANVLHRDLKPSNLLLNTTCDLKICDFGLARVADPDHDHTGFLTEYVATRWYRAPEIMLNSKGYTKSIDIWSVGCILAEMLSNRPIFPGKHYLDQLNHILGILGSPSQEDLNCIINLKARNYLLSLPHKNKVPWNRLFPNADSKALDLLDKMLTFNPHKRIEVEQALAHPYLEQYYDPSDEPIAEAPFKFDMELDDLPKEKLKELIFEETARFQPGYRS
Chain of RAC-alpha serine/threonine-protein kinase (Homo sapiens) (P31749 whole entry): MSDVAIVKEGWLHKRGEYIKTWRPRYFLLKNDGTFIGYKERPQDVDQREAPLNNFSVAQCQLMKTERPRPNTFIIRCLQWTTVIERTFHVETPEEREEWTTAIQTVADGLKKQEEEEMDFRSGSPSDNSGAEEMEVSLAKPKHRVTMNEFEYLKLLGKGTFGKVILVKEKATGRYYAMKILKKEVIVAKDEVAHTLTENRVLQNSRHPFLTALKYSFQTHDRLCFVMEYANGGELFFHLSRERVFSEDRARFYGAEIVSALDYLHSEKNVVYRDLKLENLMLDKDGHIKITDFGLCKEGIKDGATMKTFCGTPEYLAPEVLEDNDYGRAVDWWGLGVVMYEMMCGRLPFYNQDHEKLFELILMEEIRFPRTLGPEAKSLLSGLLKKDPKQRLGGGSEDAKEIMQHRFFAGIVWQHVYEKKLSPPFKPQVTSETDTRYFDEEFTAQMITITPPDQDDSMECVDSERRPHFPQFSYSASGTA

Compound: COc1ccccc1CNCCCN1C(=O)c2ccc3c4c(ccc(c24)C1=O)C(=O)N(CCCNCCCCN)C3=O
- Activity (PC-3 [1]): Active
- Activity (PC-3 [2]): 70 - 80%
- Activity [3]: Active
- deltaS (Quadruplex DNA [4]): 18.9 cal/mol.K
- Activity (DU-145 [5]): inactive
- Activity (PC-3 [6]): Toxic
- Activity (PC-3 [7]): 50%
- Activity (DU-145 [8]): inactive
- Activity (DU-145 [9]): Active
- deltaH (Quadruplex DNA [10]): -4.6 kJ/mol
- IC50 (DU-145 [11]): 2.73 µM
- Activity (PC-3 [12]): Dose-dependent effect
- Activity (PC-3 [13]): Toxic
- Activity [14]: Active
- Activity [15]: Active
- Activity (DU-145 [16]): Toxic
- Activity (Quadruplex DNA [17]): Active
- Activity (DU-145 [18]): 1.85
- Activity (PC-3 [19]): inactive
- Activity (PC-3 [20]): Active
- IC50 (DU-145 [21]): 4.76 µM
- deltaS (Quadruplex DNA [22]): -1.9 cal/mol.K
- Activity (PC-3 [23]): Active
- IC50 (PC-3 [24]): 2.8 µM
- deltaH (Quadruplex DNA [25]): -33.5 kJ/mol
- Activity (PC-3 [26]): Active
- Activity (DU-145 [27]): Toxic
- Activity [28]: inactive
- Activity (Quadruplex DNA [29]): Active
- IC50 (DU-145 [30]): 2.05 µM
- Activity (Homo sapiens [31]): Active
- Activity (Homo sapiens [32]): 3.8 kilobase
- Activity (DU-145 [33]): 20%
- Activity [34]: inactive
- Activity (PC-3 [35]): Toxic
- Activity (Quadruplex DNA [36]): Active
- inhibition (INH) (PC-3 [37]): 100%
- Activity (Homo sapiens [38]): 4.4 kilobase
- Activity (DU-145 [39]): Toxic
- IC50 (PC-3 [40]): 1.46 µM
- Activity (DU-145 [41]): Dose-dependent effect
- IC50 (PC-3 [42]): 2.44 µM
- Activity (PC-3 [43]): 0.97
- Activity (PC-3 [44]): Active
